Patent US10363239B2, “Method for inhibiting growth of cancer cells” (Pain Therapeutics, Inc., priority 2013, dated 2019)

Target: FLNA pentapeptide of SEQ ID NO: 1 (Bn-VAKGL) (Homo sapiens, UniProt P21333)
Assay: FITC-NLX-based FLNA screening assay (inhibition of FITC-naloxone binding to Bn-VAKGL on streptavidin plates)
Conditions: FLNA-binding compound 0.01 μM; 10 nM FITC-NLX; read-out: Percent Binding Inhibition

Question: Which inhibition at 0.01 µM does the source give for O=C(OCc1ccccc1)c1ccc(S(=O)(=O)N2CCC3(CC2)OCCN3S(=O)(=O)c2ccc(C(=O)OCc3ccccc3)cc2)cc1 [Compound C0042] here?
Answer: 42.4%

Question: How did the inhibition at 0.01 µM turn out when OC(COc1cccc(F)c1)CN1CCc2ccccc2C1 (stereo not drawn) [Compound A0055] was run?
Answer: 28.1%

Question: For CC(=O)c1ccc(S(=O)(=O)N2CC(CN(C)C)OC23CCN(CC2CC2)CC3)cc1 (stereo not drawn) [Compound C0128M], which inhibition at 0.01 µM is on record?
Answer: 46.5%

Question: Which inhibition at 0.01 µM does the source give for CC1CCC(C(C)C)C(OCC(O)CN2CCCCCCC2)C1 (stereo not drawn) [Compound A0014] here?
Answer: 33.8%

Same assay, conditions: FLNA-binding compound 0.1 μM; 10 nM FITC-NLX; read-out: Percent Binding Inhibition

Question: O=C(OCc1ccccc1)c1ccc(S(=O)(=O)N2CCC3(CC2)OCCN3S(=O)(=O)c2ccc(C(=O)OCc3ccccc3)cc2)cc1 [Compound C0042] was tested. Which inhibition at 0.1 µM did it give?
Answer: 49.7%

Question: For OC(COc1cccc(F)c1)CN1CCc2ccccc2C1 (stereo not drawn) [Compound A0055], which inhibition at 0.1 µM is on record?
Answer: 32.4%

Question: How did the inhibition at 0.1 µM turn out when CC(=O)c1ccc(S(=O)(=O)N2CC(CN(C)C)OC23CCN(CC2CC2)CC3)cc1 (stereo not drawn) [Compound C0128M] was run?
Answer: 54.4%

Question: How did the inhibition at 0.1 µM turn out when CC1CCC(C(C)C)C(OCC(O)CN2CCCCCCC2)C1 (stereo not drawn) [Compound A0014] was run?
Answer: 39.7%

Same assay, conditions: FLNA-binding compound 1 μM; 10 nM FITC-NLX; read-out: Percent Binding Inhibition

Question: How did the inhibition at 1 µM turn out when O=C(OCc1ccccc1)c1ccc(S(=O)(=O)N2CCC3(CC2)OCCN3S(=O)(=O)c2ccc(C(=O)OCc3ccccc3)cc2)cc1 [Compound C0042] was run?
Answer: 56.1%

Question: OC(COc1cccc(F)c1)CN1CCc2ccccc2C1 (stereo not drawn) [Compound A0055] was tested. Which inhibition at 1 µM did it give?
Answer: 41.8%

Question: With CC(=O)c1ccc(S(=O)(=O)N2CC(CN(C)C)OC23CCN(CC2CC2)CC3)cc1 (stereo not drawn) [Compound C0128M] as the compound, how does the inhibition at 1 µM read?
Answer: 58.2%

Question: CC1CCC(C(C)C)C(OCC(O)CN2CCCCCCC2)C1 (stereo not drawn) [Compound A0014] was tested. Which inhibition at 1 µM did it give?
Answer: 44.7%

Same assay, conditions: read-out: Percent Binding Inhibition, FLNA-binding compound 0.01 μM; 10 nM FITC-NLX

Question: CC1CCC(C(C)C)C(OCC(O)CN2CCCCC2)C1 (stereo not drawn) [Compound A0005] was tested. Which inhibition at 0.01 µM did it give?
Answer: 34.2%

Question: Which inhibition at 0.01 µM does the source give for OC(COc1ccc(Br)c(F)c1)CN1CCCCC1 (stereo not drawn) [Compound A0058] here?
Answer: 28.9%

Same assay, conditions: read-out: Percent Binding Inhibition, FLNA-binding compound 0.1 μM; 10 nM FITC-NLX

Question: CC1CCC(C(C)C)C(OCC(O)CN2CCCCC2)C1 (stereo not drawn) [Compound A0005] was tested. Which inhibition at 0.1 µM did it give?
Answer: 38.2%

Question: How did the inhibition at 0.1 µM turn out when OC(COc1ccc(Br)c(F)c1)CN1CCCCC1 (stereo not drawn) [Compound A0058] was run?
Answer: 36.6%

Same assay, conditions: read-out: Percent Binding Inhibition, FLNA-binding compound 1 μM; 10 nM FITC-NLX

Question: CC1CCC(C(C)C)C(OCC(O)CN2CCCCC2)C1 (stereo not drawn) [Compound A0005] was tested. Which inhibition at 1 µM did it give?
Answer: 43.8%

Question: For OC(COc1ccc(Br)c(F)c1)CN1CCCCC1 (stereo not drawn) [Compound A0058], which inhibition at 1 µM is on record?
Answer: 42.1%

System: mu opiate receptor (MOR)
Assay: MOR agonist activity using [35S]GTPγS binding assay in striatal membranes
Assay type: biochemical
Conditions: 0.1 μM compound
Method in brief: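 Striatal membranes (200 μg) were preincubated 5 min at 30 °C in HEPES pH 7.5 with 100 mM NaCl, 1 mM MgCl2 and 0.5 nM [35S]GTPγS, then 5 min more with 0.1–10 μM compound. Gαo was immunoprecipitated and bound radioactivity counted by scintillation.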

Question: With CC1CCC(C(C)C)C(OCC(O)CN2CCCCC2)C1 (stereo not drawn) [Compound A0005] as the compound, how does the “MOR agonist activity ([35S]GTPγS binding), FLNA-Binding Compound as Agonist 0.1 μM” value (“MOR agonist activity … as Agonist 0.1 μM” for short) read?
Answer: 179.7%

Question: OC(COc1ccc(Br)c(F)c1)CN1CCCCC1 (stereo not drawn) [Compound A0058] was tested. Which “MOR agonist activity … as Agonist 0.1 μM” value did it give?
Answer: 70.7%

Question: Which “MOR agonist activity … as Agonist 0.1 μM” value does the source give for OC(COc1cccc(F)c1)CN1CCc2ccccc2C1 (stereo not drawn) [Compound A0055] here?
Answer: 89.8%

Question: CC1CCC(C(C)C)C(OCC(O)CN2CCCCCCC2)C1 (stereo not drawn) [Compound A0014] was tested. Which “MOR agonist activity … as Agonist 0.1 μM” value did it give?
Answer: 147.0%

Same assay, conditions: 0.1 μM compound relative to DAMGO

Question: Which “% DAMGO (0.1 μM)” value does the source give for CC1CCC(C(C)C)C(OCC(O)CN2CCCCC2)C1 (stereo not drawn) [Compound A0005] here?
Answer: 105.0%

Question: Which “% DAMGO (0.1 μM)” value does the source give for OC(COc1ccc(Br)c(F)c1)CN1CCCCC1 (stereo not drawn) [Compound A0058] here?
Answer: 45.3%

Question: For OC(COc1cccc(F)c1)CN1CCc2ccccc2C1 (stereo not drawn) [Compound A0055], which “% DAMGO (0.1 μM)” value is on record?
Answer: 53.2%

Question: CC1CCC(C(C)C)C(OCC(O)CN2CCCCCCC2)C1 (stereo not drawn) [Compound A0014] was tested. Which “% DAMGO (0.1 μM)” value did it give?
Answer: 83.2%

Same assay, conditions: 1 μM compound

Question: For CC1CCC(C(C)C)C(OCC(O)CN2CCCCC2)C1 (stereo not drawn) [Compound A0005], which “MOR agonist activity ([35S]GTPγS binding), FLNA-Binding Compound as Agonist 1 μM” value is on record?
Answer: 239.2%

Question: With OC(COc1ccc(Br)c(F)c1)CN1CCCCC1 (stereo not drawn) [Compound A0058] as the compound, how does the “MOR agonist activity ([35S]GTPγS binding), FLNA-Binding Compound as Agonist 1 μM” value read?
Answer: 244.3%

Question: OC(COc1cccc(F)c1)CN1CCc2ccccc2C1 (stereo not drawn) [Compound A0055] was tested. Which “MOR agonist activity ([35S]GTPγS binding), FLNA-Binding Compound as Agonist 1 μM” value did it give?
Answer: 195.2%

Question: CC1CCC(C(C)C)C(OCC(O)CN2CCCCCCC2)C1 (stereo not drawn) [Compound A0014] was tested. Which “MOR agonist activity ([35S]GTPγS binding), FLNA-Binding Compound as Agonist 1 μM” value did it give?
Answer: 174.9%

Same assay, conditions: 1 μM compound + 1 μM β-funaltrexamine

Question: How did the “MOR agonist activity ([35S]GTPγS binding), FLNA-Binding Compound as Agonist 1 μM + BFNA” value (from here on “MOR agonist activity … as Agonist 1 μM + BFNA”) turn out when CC1CCC(C(C)C)C(OCC(O)CN2CCCCC2)C1 (stereo not drawn) [Compound A0005] was run?
Answer: 23.5%

Question: OC(COc1ccc(Br)c(F)c1)CN1CCCCC1 (stereo not drawn) [Compound A0058] was tested. Which “MOR agonist activity … as Agonist 1 μM + BFNA” value did it give?
Answer: 59.9%

Question: OC(COc1cccc(F)c1)CN1CCc2ccccc2C1 (stereo not drawn) [Compound A0055] was tested. Which “MOR agonist activity … as Agonist 1 μM + BFNA” value did it give?
Answer: 33.5%

Question: CC1CCC(C(C)C)C(OCC(O)CN2CCCCCCC2)C1 (stereo not drawn) [Compound A0014] was tested. Which “MOR agonist activity … as Agonist 1 μM + BFNA” value did it give?
Answer: 140.8%

Same assay, conditions: 1 μM compound + BFNA relative to DAMGO + BFNA

Question: Which “% DAMGO + BFNA” value does the source give for CC1CCC(C(C)C)C(OCC(O)CN2CCCCC2)C1 (stereo not drawn) [Compound A0005] here?
Answer: 45.1%

Question: For OC(COc1ccc(Br)c(F)c1)CN1CCCCC1 (stereo not drawn) [Compound A0058], which “% DAMGO + BFNA” value is on record?
Answer: 150.1%

Question: OC(COc1cccc(F)c1)CN1CCc2ccccc2C1 (stereo not drawn) [Compound A0055] was tested. Which “% DAMGO + BFNA” value did it give?
Answer: 102.4%

Question: For CC1CCC(C(C)C)C(OCC(O)CN2CCCCCCC2)C1 (stereo not drawn) [Compound A0014], which “% DAMGO + BFNA” value is on record?
Answer: 214.3%

Same assay, conditions: 1 μM compound relative to DAMGO

Question: Which “% DAMGO (1 μM)” value does the source give for CC1CCC(C(C)C)C(OCC(O)CN2CCCCC2)C1 (stereo not drawn) [Compound A0005] here?
Answer: 89.6%

Question: OC(COc1ccc(Br)c(F)c1)CN1CCCCC1 (stereo not drawn) [Compound A0058] was tested. Which “% DAMGO (1 μM)” value did it give?
Answer: 106.0%

Question: OC(COc1cccc(F)c1)CN1CCc2ccccc2C1 (stereo not drawn) [Compound A0055] was tested. Which “% DAMGO (1 μM)” value did it give?
Answer: 78.4%

Question: Which “% DAMGO (1 μM)” value does the source give for CC1CCC(C(C)C)C(OCC(O)CN2CCCCCCC2)C1 (stereo not drawn) [Compound A0014] here?
Answer: 67.5%

Same assay, conditions: Series C-1; 0.1 μM compound, relative to DAMGO

Question: O=C(OCc1ccccc1)c1ccc(S(=O)(=O)N2CCC3(CC2)OCCN3S(=O)(=O)c2ccc(C(=O)OCc3ccccc3)cc2)cc1 [Compound C0042] was tested. Which “% DAMGO (0.1 μM)” value did it give?
Answer: 98.9%

Same assay, conditions: Series C-1; 0.1 μM compound; [35S]GTPγS binding to Gαo, striatal membranes

Question: How did the “Concentration of FLNA-Binding Compound as Agonist 0.1 μM” value turn out when O=C(OCc1ccccc1)c1ccc(S(=O)(=O)N2CCC3(CC2)OCCN3S(=O)(=O)c2ccc(C(=O)OCc3ccccc3)cc2)cc1 [Compound C0042] was run?
Answer: 167.1%

Same assay, conditions: Series C-1; 1 μM compound + 1 μM β-FNA

Question: With O=C(OCc1ccccc1)c1ccc(S(=O)(=O)N2CCC3(CC2)OCCN3S(=O)(=O)c2ccc(C(=O)OCc3ccccc3)cc2)cc1 [Compound C0042] as the compound, how does the “Concentration of FLNA-Binding Compound as Agonist 1 μM + BFNA” value read?
Answer: 110.6%

Same assay, conditions: Series C-1; 1 μM compound + β-FNA, relative to DAMGO + BFNA

Question: How did the “% DAMGO + BFNA” value turn out when O=C(OCc1ccccc1)c1ccc(S(=O)(=O)N2CCC3(CC2)OCCN3S(=O)(=O)c2ccc(C(=O)OCc3ccccc3)cc2)cc1 [Compound C0042] was run?
Answer: 666.3%

Same assay, conditions: Series C-1; 1 μM compound, relative to DAMGO

Question: For O=C(OCc1ccccc1)c1ccc(S(=O)(=O)N2CCC3(CC2)OCCN3S(=O)(=O)c2ccc(C(=O)OCc3ccccc3)cc2)cc1 [Compound C0042], which “% DAMGO (1 μM)” value is on record?
Answer: 119.2%

Same assay, conditions: Series C-1; 1 μM compound; [35S]GTPγS binding to Gαo, striatal membranes

Question: O=C(OCc1ccccc1)c1ccc(S(=O)(=O)N2CCC3(CC2)OCCN3S(=O)(=O)c2ccc(C(=O)OCc3ccccc3)cc2)cc1 [Compound C0042] was tested. Which “Concentration of FLNA-Binding Compound as Agonist 1 μM” value did it give?
Answer: 260.9%

Same assay, conditions: Series C-2; 0.1 μM compound, relative to DAMGO

Question: How did the “% DAMGO (0.1 μM)” value turn out when CC(=O)c1ccc(S(=O)(=O)N2CC(CN(C)C)OC23CCN(CC2CC2)CC3)cc1 (stereo not drawn) [Compound C0128M] was run?
Answer: 104.5%

Same assay, conditions: Series C-2; 0.1 μM compound; [35S]GTPγS binding to Gαo, striatal membranes

Question: With CC(=O)c1ccc(S(=O)(=O)N2CC(CN(C)C)OC23CCN(CC2CC2)CC3)cc1 (stereo not drawn) [Compound C0128M] as the compound, how does the “MOR agonist activity, percent [35S]GTPγS binding at the stated compound concentration” value (shortened to “MOR agonist activity, percent”) read?
Answer: 197.8%

Same assay, conditions: Series C-2; 1 μM compound + 1 μM β-FNA

Question: CC(=O)c1ccc(S(=O)(=O)N2CC(CN(C)C)OC23CCN(CC2CC2)CC3)cc1 (stereo not drawn) [Compound C0128M] was tested. Which “MOR agonist activity, percent” value did it give?
Answer: 63.9%

Same assay, conditions: Series C-2; 1 μM compound + β-FNA, relative to DAMGO + BFNA

Question: How did the “% DAMGO + BFNA” value turn out when CC(=O)c1ccc(S(=O)(=O)N2CC(CN(C)C)OC23CCN(CC2CC2)CC3)cc1 (stereo not drawn) [Compound C0128M] was run?
Answer: 131.8%

Same assay, conditions: Series C-2; 1 μM compound, relative to DAMGO

Question: CC(=O)c1ccc(S(=O)(=O)N2CC(CN(C)C)OC23CCN(CC2CC2)CC3)cc1 (stereo not drawn) [Compound C0128M] was tested. Which “% DAMGO (1 μM)” value did it give?
Answer: 115.2%

Same assay, conditions: Series C-2; 1 μM compound; [35S]GTPγS binding to Gαo, striatal membranes

Question: For CC(=O)c1ccc(S(=O)(=O)N2CC(CN(C)C)OC23CCN(CC2CC2)CC3)cc1 (stereo not drawn) [Compound C0128M], which “MOR agonist activity, percent” value is on record?
Answer: 286.0%
